The source of these data is patent publication US20260337162A1, “TRYPTAMINE COMPOUNDS, COMPOSITIONS, AND METHODS OF USE” (priority 2022, published 2026).

The test system of data set [1] is 5-HT2A receptor. Description: Head-twitch response (HTR) and behavioral observation in mice. It is filed as in vivo, adult, male C57BL/6J mice. Particulars: 10 mg/kg PO, mice. The procedure: The HTR assay was performed in adult, male C57BL/6J mice, procured from the Jackson Laboratory (Bar Harbor, Maine), as previously described (Canal, C. E., and Morgan, D., 2012, Head-twitch response in rodents induced by the hallucinogen 2,5-dimethoxy-4-iodoamphetamine: a comprehensive history, a re-evaluation of mechanisms, and its utility as a model, Drug Test Anal 4, 556-576; Saraf, T. S., Felsing, D. E., Armstrong, J. L., Booth, R. G., and Canal, C. E., 2021, Evaluation of lorcaserin as an anticonvulsant in juvenile Fmr1 knockout mice, Epilepsy Res 175, 106677). Mice were housed in standard laboratory cages with ad libitum access to food and water, and were acclimated to the vivarium for at least one week prior to testing in a procedure room. On the day of testing, mice were acclimated to the procedure room in their home cages for ≥60 min before administration of test compounds. Test articles were administered at 10 mg/kg by oral gavage and mice were placed immediately thereafter in a clear, polycarbonate box (46×20×20 cm), and HTRs were counted for 30 consecutive minutes, using hand-held tally counters, by two trained observers who were blind to treatment.

The conditions of data set [2]: humans (TIHKAL; Erowid); cited from earlier work.
The conditions of data set [3]: in vivo, cited from earlier work.
The target of data set [4] is T1, 5-HT2A receptor (Homo sapiens, UniProt P28223).
T1 construct: expressed in transfected cells
Description: Competition binding assay with [125I]DOI, 5-HT2A receptor. Particulars: [125I]DOI radioligand; read-out: 5-HT2A affinity. As to the method: (§1) Binding affinity (Ki) and functional potency and efficacy (EC50 and EMAX) values of the compounds were measured.

Data set [5] deals with T1, 5-HT2A receptor. The experiment in a line: 5-HT2A receptor functional screening assay (efficacy relative to maximal 5-HT response). It is filed as cell-based. Conditions: for activation at 0.5 µM: 500 nM. The procedure: (§2) 5-HT2 receptor-mediated Gq stimulation [phosphoinositide hydrolysis leading to the production of inositol phosphate 1 (IP1)]-canonical signaling pathways-were measured as previously described (Canal, C. E., Cordova-Sintjago, T., Liu, Y., Kim, M. S., Morgan, D., and Booth, R. G., 2013, Molecular pharmacology and ligand docking studies reveal a single amino acid difference between mouse and human serotonin 5-HT2A receptors that impacts behavioral translation of novel 4-phenyl-2-dimethylaminotetralin ligands, J Pharmacol Exp Ther 347, 705-716; Canal, C. E., Morgan, D., Felsing, D., Kondabolu, K., Rowland, N. E., Robertson, K. L., Sakhuja, R., and Booth, R. G., 2014, A Novel Aminotetralin-Type Serotonin (5-HT)(2C) Receptor —Specific Agonist and 5-HT2A Competitive Antagonist/5-HT2B Inverse Agonist with Preclinical Efficacy for Psychoses, J Pharm Exp Ther 349, 533), for example, with a homogeneous time-resolved fluorescence (HTRF) capable microplate reader (e.g., Mithras LB 940, Berthold) using commercially-available kits employing Fluorescence Resonance Energy Transfer (FRET) technology (e.g., IP-One HTRF (Cisbio) kits). Briefly, CHO-K1 or HEK293 cells expressing a single serotonergic 5-HT2 receptor subtype were incubated with test compounds and 5-HT or DOI (positive control) in stimulation buffer containing LiCl. After equilibration, the reaction was terminated with the donor and acceptor fluorescent conjugates in lysis buffer, and FRET was measured with a microplate reader (Berthold Mithras). Data were fit to non-linear curves to calculate potencies (e.g., EC50) and efficacies (e.g., EMAX), relative to positive controls (e.g., serotonin).

The nature of data set [6]: in vitro. In kind it is in vitro ADME, Male Sprague-Dawley rat. Conditions: rat liver microsomes 0.5 mg/mL, 1 mM NADPH, test compound 1 μM, pH 7.4, 37° C.; read-out: RLM, t1/2. The procedure: Male Sprague-Dawley rat liver microsomes were purchased from XenoTech. The reaction mixture, minus NADPH, was prepared as described below. The test compound was added into the reaction mixture at a final concentration of 1 μM. The control compound, testosterone, was run simultaneously with the test compound in a separate reaction. The reaction mixture (without cofactor) was equilibrated in a shaking water bath at 37° C. for 5 minutes. The reaction was initiated by the addition of the cofactor, and the mixture was incubated in a shaking water bath at 37° C. Aliquots (150 μL) were withdrawn at 0, 5, 10, 20, 30, 60, and 120 minutes. Test compound and testosterone samples were immediately combined with 150 μL of ice-cold acetonitrile (ACN) containing 0.1% formic acid and internal standard to terminate the reaction. The samples were then mixed and centrifuged to precipitate proteins. All samples were assayed by LC-MS/MS using electrospray ionization. The peak area response ratio (PARR) of analyte to internal standard at each time point was compared to the PARR at time 0 to determine the percent remaining at each time point. Half-lives were calculated using GraphPad software, fitting to a single-phase exponential decay equation.

The target of data set [7] is T2, human serotonin 5-HT2A receptor (Homo sapiens, UniProt P28223).
T2 construct: host or cells: HEK293 (ATCC CRL-1573)
The experiment in a line: Radioligand ([3H]LSD) competition binding, 5-HT2A receptor. Conditions: in words; up to 10 μM for partial competition. The procedure:
as §1
Radioligand competition binding was performed as previously described (Saraf, T. S., Felsing, D. E., Armstrong, J. L., Booth, R. G., and Canal, C. E., 2021, Evaluation of lorcaserin as an anticonvulsant in juvenile Fmr1 knockout mice, Epilepsy Res 175, 106677), with minor modifications, using human cloned 5-HT2A receptors. Plasmids encoding human serotonin 5-HT2A receptor cDNA were procured from the cDNA Resource Center. Human embryonic kidney cells (HEK293, ATCC CRL-1573) were grown in a cell incubator in 100 mm dishes with antibiotic-free Dulbecco's modified Eagle's medium containing 10% fetal bovine serum. Cells were transfected at ~85% confluency with 5-15 μg cDNA using TransIT-2020 reagent (Mirus Bio, Madison, Wisconsin). After approximately 48 hours, cell membrane was collected via centrifugation. For all experiments, serotonin (5-HT) hydrochloride was used as a positive control, and mianserin hydrochloride (10 μM) was used to define non-specific binding. Each cell membrane homogenate expressing 5-HT2A receptors was incubated at room temperature in 96-well plates with [^3H] […] Following equilibration, each sample was filtered rapidly under vacuum through fiberglass filters presoaked in a buffer and washed by vacuum several times with an ice-cold buffer. Filters were soaked with scintillation fluid and counts per minute were detected using photodetectors (Microbeta Scintillation Counter). […] Data shown are the results from all experiments combined. As is known, G protein-coupled receptors, including the 5-HT2A receptor, can exist in multiple conformations, and ligands, typically agonist ligands, have unique affinities for these conformations of the receptor (Kenakin, T. Theoretical Aspects of GPCR-Ligand Complex Pharmacology, Chem. Rev. 2017, 117, 1, 4-20). […] However, for simplicity reasons, affinity of these compounds are reported herein as fitted to the single-site model. The data point for −10 samples is total specific binding (no compound present), and −4 was interpolated to complete the binding curves to 0 specific binding.

For data set [8], the target named is 5-HT2B receptor (Homo sapiens, UniProt P41595). Description: Dose-response 5-HT2B functional assay (IP1 formation). In kind it is cell-based. Particulars: for EC50 / 5-HT2B functional activity (in words): IP1 formation; for 5-HT2B functional activity (in words): dose-response; for Emax: percent of control agonist response. The procedure:
FIG. 29 is a graph showing the dose-response 5-HT2B functional assay results as a percent of control agonist response for compounds III-2 and IV-21; tested in duplicate at the indicated concentrations and the EC50 values were determined by non-linear regression analysis of the concentration-response curves generated with mean replicate values using Hill equation curve fitting.
as §2
(§3) The results from tests of 5-HT2A functional activities of this series of compounds were also unexpected in the context of the unusual results observed from competition binding assays. […] Complete dose-response 5-HT2A and 5HT2B functional assays (measuring IP1 formation) were conducted for III-2 and IV-21 by a second, independent laboratory.

Data set [9] addresses T1, 5-HT2A receptor. The experiment in a line: Dose-response 5-HT2A functional assay (IP1 formation). It is filed as cell-based. Conditions: for 5-HT2A functional activity (in words): dose-response. As to the method:
FIG. 27 is a graph showing the dose-response 5-HT2A functional assay results as a percent of control agonist response for compound II-2; tested in duplicate at the indicated concentrations and the EC50 values were determined by non-linear regression analysis of the concentration-response curves generated with mean replicate values using Hill equation curve fitting;
FIG. 28 is a graph showing the dose-response 5-HT2A functional assay results as a percent of control agonist response for compounds III-2 and IV-21; tested in duplicate at the indicated concentrations and the EC50 values were determined by non-linear regression analysis of the concentration-response curves generated with mean replicate values using Hill equation curve fitting; and
as §2, §3

Chain of 5-HT2B receptor (P41595 whole entry): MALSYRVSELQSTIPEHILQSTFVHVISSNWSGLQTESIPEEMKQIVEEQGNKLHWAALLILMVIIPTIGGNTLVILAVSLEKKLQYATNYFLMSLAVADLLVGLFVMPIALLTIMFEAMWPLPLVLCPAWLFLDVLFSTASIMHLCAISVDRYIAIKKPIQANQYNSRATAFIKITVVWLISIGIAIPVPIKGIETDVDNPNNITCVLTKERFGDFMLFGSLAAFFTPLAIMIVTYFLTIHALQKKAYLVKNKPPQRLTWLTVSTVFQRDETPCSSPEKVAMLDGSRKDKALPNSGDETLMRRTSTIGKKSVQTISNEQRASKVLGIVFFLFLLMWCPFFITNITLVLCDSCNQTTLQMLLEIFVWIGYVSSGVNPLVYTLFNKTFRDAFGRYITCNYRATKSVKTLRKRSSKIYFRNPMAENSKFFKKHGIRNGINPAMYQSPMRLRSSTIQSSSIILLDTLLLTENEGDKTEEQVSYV
T1 sequence (P28223 whole entry): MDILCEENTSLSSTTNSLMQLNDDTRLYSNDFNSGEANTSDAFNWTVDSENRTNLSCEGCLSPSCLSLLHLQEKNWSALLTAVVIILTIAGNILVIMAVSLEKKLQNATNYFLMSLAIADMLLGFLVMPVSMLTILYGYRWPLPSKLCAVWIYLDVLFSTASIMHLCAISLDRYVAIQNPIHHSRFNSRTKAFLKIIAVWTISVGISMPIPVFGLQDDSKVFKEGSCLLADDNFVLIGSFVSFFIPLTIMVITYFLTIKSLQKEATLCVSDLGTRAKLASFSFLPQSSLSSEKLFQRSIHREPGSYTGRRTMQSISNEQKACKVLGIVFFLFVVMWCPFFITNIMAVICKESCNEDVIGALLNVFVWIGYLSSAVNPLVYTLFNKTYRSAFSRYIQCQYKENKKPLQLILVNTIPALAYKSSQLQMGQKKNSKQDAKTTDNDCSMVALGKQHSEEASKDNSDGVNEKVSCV
T2 sequence (P28223 whole entry): as above

For the molecule `CCN(CC)CCc1c[nH]c2ccccc12` [DET, N,N-diethyltryptamine, reference compound], in data set [1], the “elicitation of HTR (in words)” value is “inactive at eliciting the HTR”; the qualitative behavioral changes result is “accelerated breathing, hyperlocomotion, hiccup responses, and chewing movements of mouth”. Moreover, the “oral activity in humans” value in data set [2] was “active orally in humans”.
Regarding `CN(C)CCc1c[nH]c2ccccc12` [DMT, N,N-dimethyltryptamine], the “oral activity / oral bioavailability” value in data set [3] (po) is recorded as “not orally active”. Besides, the duration of action in data set [3] was 5 to 15 min.
Consider `CN(CCc1c[nH]c2ccccc12)[S+]([O-])C(F)(F)F` (stereo not drawn) [II-15, N-(2-(1H-indol-3-yl)ethyl)-1,1,1-trifluoro-N-methylmethanesulfinamide], for which the Ki in [4] is greater than 3 µM. In [5], the activation at 0.5 µM was -24.1% and the activation at 50 µM is -36.9%. The “5-HT2A functional activity (in words)” value in [5] (in vitro screening, II-15: both 500 nM and 50 μM) is on record as “inverse agonist efficacy”.
Consider `CN(CCc1c[nH]c2ccccc12)CC(F)(F)F` [II-19, N-(2-(1H-indol-3-yl)ethyl)-2,2,2-trifluoro-N-methylethan-1-amine], for which, in [6], the half-life at 1 µM was 3.95 min. Besides, the “competition for [3H]LSD-labeled 5-HT2A receptors” value in data set [7] was “only partial competition”.
With `Oc1cccc2[nH]cc(CCN(CCC(F)F)CCC(F)F)c12` [III-2, 3-(2-(bis(3,3-difluoropropyl)amino)ethyl)-1H-indol-4-ol], in data set [8], it took 96 nM to reach a half-maximal effect (EC50), the “5-HT2B functional activity (in words)” value is given as “partial agonist” and the maximum response (Emax) was 65%. Also, in data set [5], the activation at 0.5 µM came to 58.3% and the activation at 50 µM was greater than 50%. For the same molecule, in [9] (IP1 formation), a half-maximal effect (EC50) was put at 383 nM and the “5-HT2A functional activity (in words)” value was “low potency, full agonist”.
For the molecule `CN(CCc1c[nH]c2cccc(O)c12)CC(F)(F)F` [III-13, 3-(2-(methyl (2,2,2-trifluoroethyl)amino)ethyl)-1H-indol-4-ol], in data set [6], the half-life at 1 µM came to 4.5 min.
The same measure, in the same setting: the same measure for `CN(C)CCc1c[nH]c2ccc(OC(F)(F)F)cc12` [IV-3, N,N-dimethyl-2-(5-(trifluoromethoxy)-1H-indol-3-yl) ethan-1-amine]: 13.1 min.
For the molecule `COc1ccc2[nH]cc(CCN(C)CCC(F)(F)F)c2c1` [IV-21, 3,3,3-trifluoro-N-(2-(5-methoxy-1H-indol-3-yl)ethyl)-N-methylpropan-1-amine], in [8], the response was half-maximal at 394 nM (EC50), the “5-HT2B functional activity (in words)” value was “partial agonist” and the Emax came out at 62%. Moreover, the activation at 0.5 µM in [5] amounted to 29.5%. Besides, in data set [9] (IP1 formation), the EC50 was greater than 3000 nM and the “5-HT2A functional activity (in words)” value is recorded as “low potency, EC50>3 μM, agonist”. Also, the EC50 in data set [9] (dose-response curve had not plateaued at 3 μM) was greater than 3000 nM.
For `COc1ccc2[nH]cc(CCN(C)CC(F)(F)F)c2c1` [IV-40, 2,2,2-trifluoro-N-(2-(5-methoxy-1H-indol-3-yl)ethyl)-N-methylethan-1-amine], in data set [6], the half-life at 1 µM turned out to be 4.55 min.
Regarding `CN(C)CCc1c[nH]c2cccc(OP(=O)(O)O)c12` [Psilocybin, psilocybin], in data set [3], the MAO-mediated metabolism result was “undergo MAO-mediated metabolism in vivo”.
For `CN(C)CCc1c[nH]c2cccc(O)c12` [psilocin], in data set [3], the MAO-mediated metabolism entry is recorded as “undergo MAO-mediated metabolism in vivo”.
